# Literature values, collected in US20040266704A1, “Method comprising irinotecan for treatment of breast cancer” (priority 2003, published 2004).
# How the values were obtained:
# [1] = test system: anthracycline resistant metastatic breast cancer; conditions: intravenous salvage therapy; twelve patients, prior chemotherapy including an anthracycline
# [2] = test system: advanced and metastatic breast cancer pretreated with doxorubicin and docetaxel; conditions: intravenous
# [3] = test system: refractory advanced breast cancer; conditions: IV, two schedules; 103 patients who failed an anthracycline, a taxane or both; preliminary data
# [4] = test system: advanced breast cancer; conditions: intravenous; patients with prior endocrine therapy and prior chemotherapy including adriamycin or other anthracyclines
# [5] = test system: recurrent breast cancer; conditions: intravenous; four cases, previous chemotherapy including doxorubicin
# [6] = test system: advanced or recurrent breast cancer; conditions: intravenous drip-infusion; patients with advanced breast cancer
smiles,measurement,setting,value
"CCc1c2c(nc3ccc(OC(=O)N4CCC(N5CCCCC5)CC4)cc13)-c1cc3c(c(=O)n1C2)COC(=O)[C@]3(O)CC [CPT-11, [1,4′-Bipiperidine]-1′-carboxylic acid (4S)-4,11-diethyl-3,4,12,14-tetrahydro-4-hydroxy-3,14-dioxo-1H-pyrano[3′,4′:6,7]indolizino[1,2-b]quinolin-9-yl ester]",treatment results in metastatic breast cancer,[1],satisfactory
same,clinical efficacy in the salvage setting,[2],inactive
same,toxicity profile,[3],acceptable toxicity profile
same,clinical efficacy in advanced breast cancer,[4],promising drug
same,clinical efficacy against advanced or recurrent breast cancer,[5],effective agent
same,clinical efficacy against advanced or recurrent breast cancer,[6],effective
